The source of these data is patent US20250346580A1, “NOVEL PYRIMIDINYL SULFONAMIDE DERIVATIVES” (Hoffmann-La Roche Inc., priority 2023, published 2025).

A short description of data set [1]: Microsome clearance assay, rat. The class given is in vitro ADME. As to conditions: rat microsomes 0.5 mg/mL plus NADPH, 37° C., test compound 1 microM; third value of cell. As to the method:
(§1) Microsome Clearance Assay Protocol:
(§2) incubations at a test compound of […] in microsomes (0.5 mg/mL) plus cofactor NADPH are performed in 96 well plates at 37° C. on a TECAN (Tecan Group Ltd, Switzerland) automated liquid handling system. The final concentration of the test compound in the incubation is 1 microM. After a 10 minutes preincubation step of the test compound with the microsomes, the enzymatic reaction is started by the addition of cofactors. At 1, 3, 6, 9, 15, 25, 35 and 45 minutes, aliquots of the incubations are removed and quenched with 1:3 (v/v) acetonitrile containing internal standards. Samples are then cooled and centrifuged before analysis of the supernatant by LC-MS/MS.
(§3) Reference compounds were tested against exemplified compounds for their Microsome Clearance.

Data set [2] is described as follows: Microsome clearance assay, human. The class given is in vitro ADME. To be noted: human microsomes 0.5 mg/mL plus NADPH, 37° C., test compound 1 microM; first value of cell. How it is done: as §1, §2, §3
Data set [3] has as its target human GPR17 short isoform (Homo sapiens, UniProt Q13304). As to the kind of experiment: GPR17 cAMP assay (hGPR17 cAMP). The class given is cell-based. To be noted: CHO-K1 cells stably expressing human GPR17 short isoform; antagonist mode with EC80 of MDL29,951, forskolin 15 μM, TR-FRET cAMP. As to the method:
GPR17 cAMP Assay Protocol:
CHO-K1 cells stably expressing vector containing untagged human GPR17 short isoform (Roche) were cultured at 37° C./5% CO2 in DMEM (Dulbecco's Modified Eagle Medium):F-12 (1:1) supplemented with 10% foetal bovine serum and 400 μg/ml Geneticin.
Changes in intracellular cyclic adenosine monophosphate (cAMP) levels were quantified using the Nano-TRF Detection Assay kit (Roche Diagnostics, Cat. No. 05214386001). This assay allows for direct cAMP quantification in a homogeneous solution. cAMP is detected based on time-resolved fluorescence energy transfer (TR-FRET) and competitive binding of ruthenylated cAMP and endogenous cAMP to an anti-cAMP monoclonal antibody labeled with AlexaFluor-700. The Ruthenium complex serves as the FRET donor and transfers energy to AlexaFluor-700. The FRET signal is inversely proportional to the cAMP concentration.
CHO-GPR17S cells were detached with Accutase and resuspended in assay buffer consisting of Hank's Balanced Salt Solution (HBSS), 10 mM HEPES (4-(2-hydroxyethyl) piperazine-1-ethanesulfonic acid solution) and 0.1% bovine serum albumin (pH 7.4). The cells were seeded in black 384-well plates (Corning) at a density of 10'000 cells/20 μl assay buffer until the addition of compounds.
Test antagonist compounds were serially diluted in dimethyl sulfoxide (DMSO) and spotted in 384-well plates. The compounds were then diluted in HBSS buffer supplemented with an EC80 concentration of MDL29,951 (3-(2-Carboxy-4,6-dichloroindol-3-yl)propionic acid) (GPR17 agonist) plus 3-Isobutyl-1-methylxanthine (IBMX) (0.5 mM final concentration) and added to the cells at room temperature. Forskolin (15 μM final concentration) was added 5 minutes after the test compounds and the cells were incubated at room temperature for 30 minutes. The assay was stopped by adding cAMP detection mix (containing detergents for cell lysis) for 90 minutes at room temperature.
Cellular cAMP was measured using a Paradigm reader (Molecular Devices). The raw data was used to calculate the FRET signal based on the assay's P-factor as per cAMP kit instructions. The data was normalized to the maximal activity of a reference antagonist and dose response curves were fitted to the percent activity of the test compounds using a sigmoidal dose response model (Genedata Screener).
In general terms: Cyclic AMP is a second messenger, typically raised through Gs and lowered through Gi signalling.

Data set [4] is described as follows: Microsome clearance assay, mouse. The class given is in vitro ADME. As to conditions: mouse microsomes 0.5 mg/mL plus NADPH, 37° C., test compound 1 microM; second value of cell. How it is done:
as §1, §2, §3

pIC50: −log10 of the molar value.

Chain of human GPR17 short isoform (Q13304 29-367): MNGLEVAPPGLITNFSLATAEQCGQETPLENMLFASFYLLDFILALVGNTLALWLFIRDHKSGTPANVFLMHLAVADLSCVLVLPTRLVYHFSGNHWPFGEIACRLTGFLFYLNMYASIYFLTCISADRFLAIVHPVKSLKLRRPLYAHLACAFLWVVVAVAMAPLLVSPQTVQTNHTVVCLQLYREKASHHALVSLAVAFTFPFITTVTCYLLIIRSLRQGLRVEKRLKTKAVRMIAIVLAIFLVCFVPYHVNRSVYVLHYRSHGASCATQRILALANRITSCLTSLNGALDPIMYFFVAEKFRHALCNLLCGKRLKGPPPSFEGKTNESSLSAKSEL

Usually pIC50 stands for −log10 of the IC50, conventionally taken in molar units. Turning to `COc1nc(NS(=O)(=O)c2c[nH]c(-c3ccccc3)c2)nc(OC)c1OCC(F)F` [Example 1, N-[5-(2,2-difluoroethoxy)-4,6-dimethoxy-pyrimidin-2-yl]-5-phenyl-1H-pyrrole-3-sulfonamide], the “Microsomal Clearance rat” value in data set [1] turned out to be 81 μL/min/mg protein. Further, the “Microsomal Clearance human” value in data set [2] is recorded as 10 μL/min/mg protein. The compound further showed a pIC50 in data set [3] of 6.32. Further, the “Microsomal Clearance mouse” value in data set [4] came out at 21 μL/min/mg protein.
As for `COc1nc(NS(=O)(=O)c2c[nH]c(-c3ncccc3F)c2)nc(OC)c1OCCF` [Example 7, N-[5-(2-fluoroethoxy)-4,6-dimethoxy-pyrimidin-2-yl]-5-(3-fluoro-2-pyridyl)-1H-pyrrole-3-sulfonamide], the “Microsomal Clearance rat” value in data set [1] amounted to 32 μL/min/mg protein. For the same compound, in data set [2], the “Microsomal Clearance human” value is on record as 10 μL/min/mg protein. In data set [3], this compound had a pIC50 of 7.07. Further, the “Microsomal Clearance mouse” value in data set [4] is reported as 12 μL/min/mg protein.
In the same order, the values of `COc1nc(NS(=O)(=O)c2c[nH]c(-c3nccs3)c2)nc(OC)c1OC(F)F` [Example 14, N-[5-(difluoromethoxy)-4,6-dimethoxy-pyrimidin-2-yl]-5-thiazol-2-yl-1H-pyrrole-3-sulfonamide] are 50 μL/min/mg protein, 10 μL/min/mg protein, 6.59 and 10 μL/min/mg protein.
On to `COc1nc(NS(=O)(=O)c2c[nH]c(-c3nccs3)c2)nc(OC)c1C1CC1C#N` (centres unmarked) [Example 35, N-[5-(2-cyanocyclopropyl)-4,6-dimethoxy-pyrimidin-2-yl]-5-thiazol-2-yl-1H-pyrrole-3-sulfonamide], for which, in data set [3], the pIC50 is 6.77.
Turning to `COc1nc(NS(=O)(=O)c2c[nH]c(-c3cncs3)c2)nc(OC)c1OCC(F)F` [Example 36, N-[5-(2,2-difluoroethoxy)-4,6-dimethoxy-pyrimidin-2-yl]-5-thiazol-5-yl-1H-pyrrole-3-sulfonamide], in data set [3], the pIC50 was 6.95.
For `COc1nc(NS(=O)(=O)c2c[nH]c(-c3ccccc3F)c2)nc(OC)c1CC(F)F` [Example 37, N-[5-(2,2-difluoroethyl)-4,6-dimethoxy-pyrimidin-2-yl]-5-(2-fluorophenyl)-1H-pyrrole-3-sulfonamide], the pIC50 in data set [3] was 6.89.
Still for that read-out and setting: with `COc1nc(NS(=O)(=O)c2c[nH]c(-c3ccccc3F)c2)nc(OC)c1OCCF` [Example 38, N-[5-(2-fluoroethoxy)-4,6-dimethoxy-pyrimidin-2-yl]-5-(2-fluorophenyl)-1H-pyrrole-3-sulfonamide] the figure was 6.91; with `COc1nc(NS(=O)(=O)c2c[nH]c(-c3ccccc3F)c2)nc(OC)c1OC(F)F` [Example 39, N-[5-(difluoromethoxy)-4,6-dimethoxy-pyrimidin-2-yl]-5-(2-fluorophenyl)-1H-pyrrole-3-sulfonamide], 6.45.
Consider `COc1nc(NS(=O)(=O)c2c[nH]c(-c3ccccc3F)c2)nc(OC)c1OCC(F)F` [Example 40, N-[5-(2,2-difluoroethoxy)-4,6-dimethoxy-pyrimidin-2-yl]-5-(2-fluorophenyl)-1H-pyrrole-3-sulfonamide], for which the pIC50 in data set [3] is 6.27.
For `COc1nc(NS(=O)(=O)c2c[nH]c(-c3cccn(C)c3=O)c2)nc(OC)c1OCC(F)F` [Example 41, N-[5-(2,2-difluoroethoxy)-4,6-dimethoxy-pyrimidin-2-yl]-5-(2-keto-1-methyl-3-pyridyl)-1H-pyrrole-3-sulfonamide], the pIC50 in data set [3] is 5.85.
On to `COc1nc(NS(=O)(=O)c2c[nH]c(-c3cnc(C)s3)c2)nc(OC)c1OCC(F)F` [Example 42, N-[5-(2,2-difluoroethoxy)-4,6-dimethoxy-pyrimidin-2-yl]-5-(2-methylthiazol-5-yl)-1H-pyrrole-3-sulfonamide], for which, in data set [3], the pIC50 is 5.70. This pIC50 and that of the compound before are within 0.2 log units of each other.
On the same count and under the same terms, for `COc1nc(NS(=O)(=O)c2c[nH]c(-c3ncccn3)c2)nc(OC)c1OCC(F)F` [Example 43, N-[5-(2,2-difluoroethoxy)-4,6-dimethoxy-pyrimidin-2-yl]-5-pyrimidin-2-yl-1H-pyrrole-3-sulfonamide] the value was 5.90; for `COc1nc(NS(=O)(=O)c2c[nH]c(-c3ncc(C)s3)c2)nc(OC)c1OCC(F)F` [Example 44, N-[5-(2,2-difluoroethoxy)-4,6-dimethoxy-pyrimidin-2-yl]-5-(5-methylthiazol-2-yl)-1H-pyrrole-3-sulfonamide], 5.57.
The same measure, in the same setting: for `COc1nc(NS(=O)(=O)c2c[nH]c(-c3cccnn3)c2)nc(OC)c1OCC(F)F` [Example 45, N-[5-(2,2-difluoroethoxy)-4,6-dimethoxy-pyrimidin-2-yl]-5-pyridazin-3-yl-1H-pyrrole-3-sulfonamide] the value was 6.60; for `COc1nc(NS(=O)(=O)c2c[nH]c(-c3ncccc3Cl)c2)nc(OC)c1OCC(F)F` [Example 46, 5-(3-chloro-2-pyridyl)-N-[5-(2,2-difluoroethoxy)-4,6-dimethoxy-pyrimidin-2-yl]-1H-pyrrole-3-sulfonamide], 7.11.
As to `COc1nc(NS(=O)(=O)c2c[nH]c(-c3ccncn3)c2)nc(OC)c1OCC(F)F` [Example 47, N-[5-(2,2-difluoroethoxy)-4,6-dimethoxy-pyrimidin-2-yl]-5-pyrimidin-4-yl-1H-pyrrole-3-sulfonamide], the pIC50 in data set [3] was 5.79. This pIC50 lies 1.32 log units lower than the previous one.
On to `COc1nc(NS(=O)(=O)c2c[nH]c(-c3cnccn3)c2)nc(OC)c1OCC(F)F` [Example 48, N-[5-(2,2-difluoroethoxy)-4,6-dimethoxy-pyrimidin-2-yl]-5-pyrazin-2-yl-1H-pyrrole-3-sulfonamide], for which, in data set [3], the negative-log IC50 (pIC50) was 5.88. The pIC50 values of the last two compounds are within 0.2 log units of each other.
For `COc1nc(NS(=O)(=O)c2c[nH]c(-c3ncccc3C)c2)nc(OC)c1OCC(F)F` [Example 49, N-[5-(2,2-difluoroethoxy)-4,6-dimethoxy-pyrimidin-2-yl]-5-(3-methyl-2-pyridyl)-1H-pyrrole-3-sulfonamide], in data set [3], the pIC50 is 6.91.
Turning to `COc1nc(NS(=O)(=O)c2c[nH]c(C3CCC3)c2)nc(OC)c1OC(F)F` [Example 50, 5-cyclobutyl-N-[5-(difluoromethoxy)-4,6-dimethoxy-pyrimidin-2-yl]-1H-pyrrole-3-sulfonamide], the pIC50 in data set [3] was 6.13.
In data set [3], `COc1nc(NS(=O)(=O)c2c[nH]c(C3CCC3)c2)nc(OC)c1OCC(F)F` [Example 51, 5-cyclobutyl-N-[5-(2,2-difluoroethoxy)-4,6-dimethoxy-pyrimidin-2-yl]-1H-pyrrole-3-sulfonamide] had a pIC50 of 6.52.
For orientation: microsomal CLint means the capacity of the preparation to metabolise the compound, expressed as a volume cleared per time. Consider `COc1nc(OCC(F)F)c(F)nc1NS(=O)(=O)c1c[nH]c(-c2ccccc2)c1` [RE-A], for which the microsomal CLint at 1 µM worked out at 489 µL/min/mg in data set [1], 21 µL/min/mg in data set [2] and 136 µL/min/mg in data set [4].
The matching figures for `N#Cc1ccc(NS(=O)(=O)c2c[nH]c(-c3ncccc3F)c2)c(F)c1` [RE-B]: 79 µL/min/mg, 253 µL/min/mg and 43 µL/min/mg.
In the same order, the values of `O=S(=O)(Nc1cc(F)c(Br)cc1F)c1c[nH]c(-c2ncccc2F)c1` [RE-C] are 582 µL/min/mg, 107 µL/min/mg and 238 µL/min/mg.
With `O=S(=O)(Nc1cc(F)c(OC(F)F)cc1F)c1c[nH]c(-c2nccs2)c1` [RE-D], the results for the microsomal CLint at 1 µM in data set [1], in data set [2] and in data set [4] were 207 µL/min/mg, 10 µL/min/mg and 35 µL/min/mg, respectively.
